Measurements: US12075778B2, “Inhibitor for resisting muskmelon powdery mildew as well as preparation method and application thereof” (Northeast Agricultural University, priority 2022, dated 2024)

Experiments:
[1] = tested on: muskmelon powdery mildew; experiment: Resistance to powdery mildew of muskmelon plants sprayed with allantoin aqueous solution and inoculated with spore suspension (greenhouse); format: in vivo, Podosphaera xanthii; settings: for plant morbidity: inoculated 24 h after first spraying
Experimental: Preparation and inoculation of pathogen spore suspension of muskmelon powdery mildew:
Muskmelon leaves with severe powdery mildew were randomly selected from the field, and conidia were transferred to a beaker containing sterile water by a brush and uniformly stirred to obtain the spore suspension of powdery mildew. Spore concentration was measured under an optical microscope by using a blood counting chamber, and the concentration of the spore suspension was adjusted to be 1×10^6spores/mL for later use, which was used for inoculation tests. It was identified that this bacterial suspension was the bacterial suspension of muskmelon powdery mildew.
Muskmelon seedlings were planted in a greenhouse in June. When the muskmelon seedlings grown to the spreading stage, they were divided into a blank group, a pathogen inoculation group, a negative control group and an experimental group. […] The negative control group was sprayed with the sterile water at 5:00 pm to 6:00 pm, spraying was carried out once every three days, and the spraying amount of each time was the same as that of the aqueous solution containing allantoin in the experimental group. 24 hours after the first spraying of the allantoin water solution in the experimental group, the negative control group, the pathogen inoculation group and the experimental group were inoculated with the spore suspension of powdery mildew obtained above after the solution on the leaves was evaporated. After the pathogen inoculation group was infected with powdery mildew, the resistance to powdery mildew of the experimental group and the negative control group was observed (as shown in FIG. 1A-B), and the disease index, morbidity and control efficiency of the experimental group were calculated.
Leaf morphology was graded according to the response of the muskmelon leaves infected with powdery mildew. Grade 0: no infection; grade 1: no obvious infection; grade 2: mild infection; grade 3: moderate infection; grade 4: severe infection; and grade 5: whole-leaf infection. Disease index=sum of disease grade numbers of all leaves of an individual plant/number of leaves of the individual plant×the highest disease grade of the leaves of the individual plant Morbidity=number of infected individual plants/total number of investigated individual plants×100% Control efficiency=number of uninfected individual plants/total number of investigated individual plants×100%
Muskmelon seedlings were planted in a greenhouse in June. When the muskmelon seedlings grown to the three-leaves and one-bud stage, they were divided into a blank group, a pathogen inoculation group, a negative control group and an experimental group. The muskmelon leaves in the experimental group were sprayed with an aqueous solution containing allantoin with the concentration of 1050 mg/L at 5:00 pm to 6:00 pm, spraying was carried out once every three days, and a medicament was uniformly covered on the leaves for each time of spraying. The negative control group was sprayed with the sterile water at 5:00 pm to 6:00 pm, spraying was carried out once every three days, and the spraying amount of each time was the same as that of the aqueous solution containing allantoin in the experimental group. 24 hours after the first spraying of the allantoin water solution in the experimental group, the negative control group, the pathogen inoculation group and the experimental group were inoculated with the spore suspension of powdery mildew obtained above after the solution on the leaves was evaporated. After the pathogen inoculation group was infected with powdery mildew, the resistance to powdery mildew of the experimental group was observed (as shown in FIG. 2A-B), and the disease index, morbidity and control efficiency of the experimental group were calculated.

[2] = tested on: pathogen of muskmelon gummy stem blight; experiment: Plate experiment of inhibitory effect on pathogen of muskmelon gummy stem blight (PDA medium); format: cell-based; settings: allantoin aqueous solution 700 mg/L and 1050 mg/L smeared on PDA plates, 7 days, 28° C.
Experimental: Based on the purpose of study, the inventor designed a plate experiment. Considering that powdery mildew is a living parasitic fungi and can only grow and reproduce on living plants, a PDA medium cannot be used for culturing, so that pathogen of muskmelon gummy stem blight is used for experiment. The specific experiment method is as follows: a PDA medium was prepared and poured into plates; equal amounts of an allantoin aqueous solution with the concentration of 700 mg/L, an allantoin aqueous solution with the concentration of 1050 mg/L and sterile water were respectively smeared on three plates, and then a bacterial cake of the pathogen of muskmelon gummy stem blight was inoculated in the center of each plate; the plates were cultured for 7 days under 28° C., and the growth of the pathogen of muskmelon gummy stem blight in the three plates was observed.

[3] = Example 3: 700 mg/L allantoin aqueous solution sprayed on leaves once every three days, spreading stage
[4] = Example 4: 1050 mg/L allantoin aqueous solution sprayed on leaves once every three days, three-leaves and one-bud stage

## NC(=O)NC1NC(=O)NC1=O (stereo not shown) [allantoin]
[1]; [3]
  control efficiency: 100%
  disease index: 0
  plant morbidity: 0%
[1]; Example 3: 700 mg/L allantoin aqueous solution, spreading stage (FIG. 1A)
  powdery mildew spots on the leaves: no powdery mildew spot is generated on the leaves
[1]; Example 4: 1050 mg/L allantoin aqueous solution sprayed on leaves once every three days, three-leaves and one-bud (seedling) stage
  plant morbidity: 0%
[1]; [4]
  control efficiency: 100%
  disease index: 0
[1]; Example 4: 1050 mg/L allantoin aqueous solution, three-leaves and one-bud stage (FIG. 2)
  powdery mildew spots on the leaves: no powdery mildew spot is generated on the leaves
[1]; aqueous solution containing allantoin sprayed on leaves in the spreading stage or the three-leaves and one-bud stage
  control efficiency (summary statement): ≤ 100%
[2]
  growth of the pathogen of muskmelon gummy stem blight on plate: does not inhibit the growth
